Measured values reported in PubChem BioAssay AID256 (DTP/NCI, 2004).
“And” between values parts separate entries of the source, which are not always exact repeats. Equal entries are not always repeated. Toxic doses and inconclusive results are not listed. Rule for the calls: active = survival T/C of 150% or more; inactive = T/C below 125% in these data.

Test system: CD2F1 mice, L1210 leukemia ip, survival T/C
Assay: NCI In Vivo Anticancer Drug Screen. Data for tumor model L1210 Leukemia (intraperitoneal) in CD2F1 (CDF1) mice
Settings: endpoint: mean survival time, higher = longer survival
Summary of the method: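 Mice carrying a transplanted tumor received test compound or vehicle alone. The value is the measurement in the treated group divided by that in the vehicle-treated control group.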

[1] = dose: 100.0 mg/kg/injection, schedule: Q01DX009 (ip), vehicle: saline with Tween-80
[2] = dose: 200.0 mg/kg/injection, schedule: Q01DX009 (ip), vehicle: saline with Tween-80
[3] = dose: 12.5 mg/kg/injection, schedule: Q01DX009 (ip), vehicle: Klucel (hydroxypropylcellulose) (HPC)
[4] = dose: 25.0 mg/kg/injection, schedule: Q01DX009 (ip), vehicle: Klucel (hydroxypropylcellulose) (HPC)
[5] = dose: 50.0 mg/kg/injection, schedule: Q01DX009 (ip), vehicle: Klucel (hydroxypropylcellulose) (HPC)
[6] = dose: 100.0 mg/kg/injection, schedule: Q01DX009 (ip), vehicle: Klucel (hydroxypropylcellulose) (HPC)
[7] = dose: 200.0 mg/kg/injection, schedule: Q01DX009 (ip), vehicle: Klucel (hydroxypropylcellulose) (HPC)
[8] = dose: 50.0 mg/kg/injection, schedule: Q01DX009 (ip), vehicle: saline with Tween-80
[9] = dose: 100.0 mg/kg/injection, schedule: Q01DX001 (ip), vehicle: saline with Tween-80
[10] = dose: 200.0 mg/kg/injection, schedule: Q01DX001 (ip), vehicle: saline with Tween-80
[11] = dose: 400.0 mg/kg/injection, schedule: Q01DX009 (ip), vehicle: saline with Tween-80
[12] = dose: 25.0 mg/kg/injection, schedule: Q04DX003 (ip), vehicle: saline with Tween-80
[13] = dose: 50.0 mg/kg/injection, schedule: Q04DX003 (ip), vehicle: saline with Tween-80
[14] = dose: 100.0 mg/kg/injection, schedule: Q04DX003 (ip), vehicle: saline with Tween-80
[15] = dose: 100.0 mg/kg/injection, schedule: Q04DX002 (ip), vehicle: saline with Tween-80
[16] = dose: 200.0 mg/kg/injection, schedule: Q04DX003 (ip), vehicle: saline with Tween-80
[17] = dose: 400.0 mg/kg/injection, schedule: Q04DX003 (ip), vehicle: saline with Tween-80
[18] = dose: 25.0 mg/kg/injection, schedule: Q04DX002 (ip), vehicle: saline with Tween-80
[19] = dose: 50.0 mg/kg/injection, schedule: Q04DX002 (ip), vehicle: saline with Tween-80
[20] = dose: 50.0 mg/kg/injection, schedule: Q01DX001 (ip), vehicle: saline with Tween-80

Measured: T/C

CCc1ccc2c(c1)N(CCCN(CCCl)CCCl)c1ccccc1S2
inactive: dose: 18.0 mg/kg/injection, schedule: Q01DX001 (ip), vehicle: saline 97 % of control | dose: 28.0 mg/kg/injection, schedule: Q01DX001 (ip), vehicle: saline 108 % of control | dose: 40.0 mg/kg/injection, schedule: Q01DX001 (ip), vehicle: saline 103 % of control | dose: 60.0 mg/kg/injection, schedule: Q01DX001 (ip), vehicle: saline with Tween-80 90 % of control

CCN1CCN(CC)C1c1ccccc1
inactive: [1] 103 % of control | [2] 98 % of control

O=Cc1ccc2ccccc2[n+]1[O-]
inactive: dose: 100.0 mg/kg/injection, schedule: Q04DX003 (ip), vehicle: saline 101 % of control | dose: 200.0 mg/kg/injection, schedule: Q04DX003 (ip), vehicle: saline 100 % of control | dose: 400.0 mg/kg/injection, schedule: Q04DX003 (ip), vehicle: saline 101 % of control

Cc1ccc(S(=O)(=O)N/N=C(\C(=O)O)c2ccccc2)cc1
inactive: [3] 95 % of control | [4] 96 % of control | [5] 96 % of control | [6] 95 % of control | [7] 93 % of control

CC(=O)Nc1ccc(S(=O)(=O)/N=C2\C=CC(=O)c3ccccc32)cc1
inactive: [8] 98 % of control | [9] 104 % of control | [1] 100 % of control | [10] 111 % of control

COc1ccc(-c2cnc(C(N)=O)c(=O)[nH]2)cc1
inactive: [1] 100 % of control | [2] 96 % of control | [11] 101 % of control

O=C(Nc1ccccc1)c1ccc(Cl)c([N+](=O)[O-])c1
inactive: dose: 25.0 mg/kg/injection, schedule: Q01DX009 (ip), vehicle: saline with Tween-80 95 % of control | [12] 86 % of control | [8] 97 % of control | [13] 89 % of control | [1] 100 % of control | [14] 94 % of control and 101 % of control

N#CCC(=O)N/N=C/c1ccccc1
inactive: [1] 91 % of control | [2] 86 % of control

O/N=C/C(O)(c1ccccc1)c1ccccc1
inactive: [15] 107 % of control | dose: 200.0 mg/kg/injection, schedule: Q04DX002 (ip), vehicle: saline with Tween-80 100 % of control

C1=CC2C3c4ccccc4C(C2C1)[n+]1ccccc13 (centres undefined)
inactive: dose: 12.5 mg/kg/injection, schedule: Q04DX003 (ip), vehicle: Klucel (hydroxypropylcellulose) (HPC) 95 % of control | dose: 25.0 mg/kg/injection, schedule: Q04DX003 (ip), vehicle: Klucel (hydroxypropylcellulose) (HPC) 97 % of control | dose: 50.0 mg/kg/injection, schedule: Q04DX003 (ip), vehicle: Klucel (hydroxypropylcellulose) (HPC) 93 % of control

COc1cc(Cl)ccc1NC(=O)OCCOc1cccc(C)c1
inactive: [8] 93 % of control | [1] 101 % of control | [2] 93 % of control

COc1ccc(C2=CC(=O)N(C(C)C)C2=O)cc1
inactive: [12] 116 % of control | [13] 93 % of control | [14] 98 % of control | [16] 108 % of control

CC/C=C(CC)\C(=C\CC)CC
inactive: [8] 100 % of control | [1] 100 % of control | [2] 107 % of control

CN(CO)c1nc(N(C)CO)nc(N(C)CO)n1
inactive: dose: 12.5 mg/kg/injection, schedule: Q01DX009 (ip), vehicle: saline 106 % of control and 108 % of control | dose: 25.0 mg/kg/injection, schedule: Q01DX009 (ip), vehicle: saline 105 % of control and 108 % of control | dose: 50.0 mg/kg/injection, schedule: Q01DX009 (ip), vehicle: saline 118 % of control and 110 % of control | dose: 100.0 mg/kg/injection, schedule: Q01DX009 (ip), vehicle: saline 117 % of control

O=C(NC(CSC(c1ccc(Cl)cc1)c1ccc(Cl)cc1)C(=O)O)OCc1ccccc1 (centres undefined)
inactive: dose: 75.0 mg/kg/injection, schedule: Q01DX001 (ip), vehicle: saline 91 % of control | dose: 300.0 mg/kg/injection, schedule: Q01DX001 (ip), vehicle: saline 97 % of control

CC1(C)OC(=O)C(c2ccccc2)O1 (centres undefined)
inactive: [14] 100 % of control | [16] 98 % of control | [17] 104 % of control

CCOC(=O)CSC(=S)NC1CCCCC1
inactive: [14] 101 % of control | [16] 98 % of control | [17] 95 % of control

CCOC(=O)/C(Br)=C/SCCN
inactive: dose: 100.0 mg/kg/injection, schedule: Q01DX001 (ip), vehicle: saline 111 % of control | dose: 200.0 mg/kg/injection, schedule: Q01DX001 (ip), vehicle: saline 105 % of control | dose: 400.0 mg/kg/injection, schedule: Q01DX001 (ip), vehicle: saline 100 % of control

Nc1nc(N2CCCCC2)c2ncn(C3OC(CO)C(O)C3O)c2n1 (centres undefined)
inactive: dose: 12.5 mg/kg/injection, schedule: Q01DX005 (ip), vehicle: water 106 % of control | dose: 25.0 mg/kg/injection, schedule: Q01DX005 (ip), vehicle: water 101 % of control | dose: 50.0 mg/kg/injection, schedule: Q01DX005 (ip), vehicle: water 112 % of control | dose: 100.0 mg/kg/injection, schedule: Q01DX005 (ip), vehicle: water 96 % of control | dose: 200.0 mg/kg/injection, schedule: Q01DX005 (ip), vehicle: water 108 % of control

CCCCC(CC)COc1ccc(N=C(N)N=C(N)N)cc1 (centres undefined)
inactive: [18] 98 % of control | [19] 102 % of control

Cc1ccc(S/C=C/C(=O)Nc2ccccc2)cc1
inactive: [18] 101 % of control | [19] 94 % of control | [9] 97 % of control | [15] 101 % of control | [14] 87 % of control | [10] 105 % of control | dose: 400.0 mg/kg/injection, schedule: Q01DX001 (ip), vehicle: saline with Tween-80 94 % of control

COC(=O)C1c2ccccc2-c2ccccc21
inactive: [13] 95 % of control | [14] 103 % of control | [16] 100 % of control

CCC(=O)N(N=O)c1ccccc1
inactive: dose: 4.7 mg/kg/injection, schedule: Q04DX003 (ip), vehicle: saline 102 % of control | dose: 9.4 mg/kg/injection, schedule: Q04DX003 (ip), vehicle: saline 107 % of control | dose: 18.8 mg/kg/injection, schedule: Q04DX003 (ip), vehicle: saline 102 % of control

CCCCCCOc1ccc(/C=N\N=C\c2ccc(OCCCCCC)cc2)cc1
inactive: [14] 91 % of control | [16] 89 % of control | [17] 91 % of control

CC(=O)O/C=C1\CC2C3CC=C4CC(OC(C)=O)CCC4(C)C3CCC2(C)C1=O (centres undefined)
inactive: dose: 25.0 mg/kg/injection, schedule: Q01DX001 (ip), vehicle: saline with Tween-80 100 % of control | [20] 95 % of control | [9] 95 % of control

CCCCN1CCCC(O)C1 (centres undefined)
inactive: [8] 100 % of control | [1] 100 % of control | [2] 103 % of control

CCCC(=O)Nc1ccn(C2OC(CO)C(O)C2O)c(=O)n1 (centres undefined)
inactive: [8] 98 % of control | dose: 50.0 mg/kg/injection, schedule: Q04DX002 (ip), vehicle: saline 100 % of control | [1] 102 % of control | dose: 100.0 mg/kg/injection, schedule: Q04DX002 (ip), vehicle: saline 97 % of control | [2] 102 % of control | dose: 200.0 mg/kg/injection, schedule: Q04DX002 (ip), vehicle: saline 97 % of control | [11] 104 % of control | dose: 400.0 mg/kg/injection, schedule: Q04DX002 (ip), vehicle: saline 97 % of control | dose: 600.0 mg/kg/injection, schedule: Q04DX002 (ip), vehicle: saline 97 % of control

O=C(COc1ccccc1)NCc1ccc([N+](=O)[O-])cc1
inactive: [20] 96 % of control | [9] 96 % of control | [10] 91 % of control

O=c1oc2c(O)c(O)cc3c(=O)oc4c(O)c(O)cc1c4c23
inactive: [3] 100 % of control | [4] 113 % of control | [5] 113 % of control | [6] 106 % of control | [7] 95 % of control | dose: 400.0 mg/kg/injection, schedule: Q01DX009 (ip), vehicle: Klucel (hydroxypropylcellulose) (HPC) 103 % of control

O=S(=O)(F)c1ccc(S)c(Cl)c1Cl
inactive: [15] 98 % of control

CC1C=C(Br)C(=O)C(n2cnc3c(=O)n(C)c(=O)n(C)c32)O1 (centres undefined)
inactive: dose: 12.5 mg/kg/injection, schedule: Q01DX005 (ip), vehicle: distilled water + Tween-80 100 % of control | dose: 25.0 mg/kg/injection, schedule: Q01DX005 (ip), vehicle: distilled water + Tween-80 97 % of control
